According to patent US8674109B2, “Pesticidal compositions” (Dow AgroSciences, LLC., priority 2009, dated 2014):

Legend:
Assay type in all cases: in vivo
[1] = test system: beet armyworm (BAW; Spodoptera exigua: Lepidoptera); test: Insecticidal test for beet armyworm, 128-well diet tray assay
Experimental: Insecticidal Test for Beet Armyworm (Spodoptera exigua)
(§1) Bioassays on beet armyworm (BAW; Spodoptera exigua: Lepidoptera) were conducted using a 128-well diet tray assay. Three to five second instar BAW larvae were placed in each well (3 mL) of the diet tray that had been previously filled with 1 mL of artificial diet to which 50 μg/cm^2 of the test compound (dissolved in 50 μL of 90:10 acetone-water mixture) had been applied (to each of eight wells) and then allowed to dry. Trays were covered with a clear self-adhesive cover, and held at 25° C., 14:10 light-dark for six days. Percent mortality was recorded for the larvae in each well; activity in the eight wells was then averaged.

[2] = test system: corn earworm (CEW; Helicoverpa zea: Lepidoptera); test: Insecticidal test for corn earworm, 128-well diet tray assay
Experimental: Insecticidal Test for Corn Earworm (Helicoverpa zea)
as §1, with “corn earworm (CEW; Helicoverpa zea:” for “beet armyworm (BAW; Spodoptera exigua:”, “CEW” for “BAW”

[3] = test system: green peach aphid (Myzus persicae); test: Insecticidal test for green peach aphid in foliar spray assay on cabbage seedlings
Experimental: Insecticidal Test for Green Peach Aphid (Myzus persicae) in Foliar Spray Assay
Cabbage seedlings grown in 3-inch pots, with 2-3 small (3-5 cm) true leaves, were used as test substrate. The seedlings were infested with 20-50 green peach aphids (wingless adult and nymph) one day prior to chemical application. Four pots with individual seedlings were used for each treatment. Compounds (2 mg) were dissolved in 2 mL of acetone/methanol (1:1) solvent, forming stock solutions of 1000 ppm. The stock solutions were diluted 5× with 0.025% Tween 20 in H2O to obtain the solution at 200 ppm. A hand-held Devilbiss sprayer was used for spraying a solution to both sides of cabbage leaves until runoff. Reference plants (solvent check) were sprayed with the diluent only. Treated plants were held in a holding room for three days at approximately 25° C. and 40% relative humidity (RH) prior to grading. Evaluation was conducted by counting the number of live aphids per plant under a microscope. Insecticidal activity was measured by using Abbott's correction formula are presented in Table 2: Corrected % Control=100*(X−Y)/X
where • X=No. of live aphids on solvent check plants • Y=No. of live aphids on treated plants

Structure (SMILES)	% Mortality BAW 50 μg/cm^2 [1]	% Mortality CEW 50 μg/cm^2 [2]	% Mortality GPA 200 ppm [3]
CCOC(=O)C(C)(C)OC(=O)Nc1ccc(-c2ncn(-c3ccc(OC(F)(F)F)cc3)n2)cc1 [Compound 20]	A (50-100)	A (50-100)	B (Less than 80)
CC(C)(OC(=O)Nc1ccc(-c2ncn(-c3ccc(OC(F)(F)F)cc3)n2)cc1)c1ccccc1 [Compound 21]	A (50-100)	A (50-100)	B (Less than 80)
COc1ccc(CC(C)OC(=O)Nc2ccc(-c3ncn(-c4ccc(OC(F)(F)F)cc4)n3)cc2)cc1 (stereo not drawn) [Compound 22]	A (50-100)	A (50-100)	B (Less than 80)
CCOC(=O)C#CC(C)(C)OC(=O)Nc1ccc(-c2ncn(-c3ccc(OC(F)(F)F)cc3)n2)cc1 [Compound 23, 4-methyl-4-{4-[1-(4-trifluoromethoxyphenyl)-1H-[1,2,4]triazol-3-yl]-phenylcarbamoyloxy}-pent-2-ynoic acid ethyl ester]	B (Less than 50)	B (Less than 50)	B (Less than 80)
CC(OC(=O)Nc1ccc(-c2ncn(-c3ccc(OC(F)(F)F)cc3)n2)cc1)C(F)(F)C(F)(F)F (stereo not drawn) [Compound 24, {4-[1-(4-trifluoromethoxyphenyl)-1H-[1,2,4]triazol-3-yl]phenyl}-carbamic acid 2,2,3,3,3-pentafluoro-1-methyl-propyl ester]	A (50-100)	A (50-100)	B (Less than 80)
CC(C)(C)OC(=O)Nc1ccc(-c2ncn(-c3ccc(OC(F)(F)F)cc3)n2)cc1 [Compound 25]	A (50-100)	A (50-100)	B (Less than 80)
CC(OC(=O)Nc1ccc(-c2ncn(-c3ccc(C(F)(F)F)cc3)n2)cc1)c1ccc(C(F)(F)F)cc1 (stereo not drawn) [Compound 27, 1-(4-(trifluoromethyl)phenyl)ethyl 4-(1-(4-(trifluoromethyl)phenyl)-1H-1,2,4-triazol-3-yl)-phenylcarbamate]	A (50-100)	A (50-100)	B (Less than 80)
CC(OC(=O)Nc1ccc(-c2ncn(-c3ccc(C(F)(F)F)cc3)n2)cc1)c1ccc(C(F)(F)F)nc1 (stereo not drawn) [Compound 28]	A (50-100)	A (50-100)	B (Less than 80)
C#CC(OC(=O)Nc1ccc(-c2ncn(-c3ccc(C(F)(F)F)cc3)n2)cc1)c1ccc(C(F)(F)F)cc1 (stereo not drawn) [Compound 29]	A (50-100)	A (50-100)	B (Less than 80)
CCC(OC(=O)Nc1ccc(-c2ncn(-c3ccc(C(F)(F)F)cc3)n2)cc1)c1ccccc1 (stereo not drawn) [Compound 30]	A (50-100)	A (50-100)	B (Less than 80)
C#CC(OC(=O)Nc1ccc(-c2ncn(-c3ccc(C(F)(F)F)cc3)n2)cc1)c1ccccc1 (stereo not drawn) [Compound 31]	A (50-100)	A (50-100)	B (Less than 80)
CC(C)(CCl)OC(=O)Nc1ccc(-c2ncn(-c3ccc(OC(F)(F)C(F)(F)F)cc3)n2)cc1 [Compound 32]	A (50-100)	A (50-100)	B (Less than 80)
CC(OC(=O)Nc1ccc(-c2ncn(-c3ccc(OC(F)(F)C(F)(F)F)cc3)n2)cc1)c1ccc(C(F)(F)F)nc1 (stereo not drawn) [Compound 33]	A (50-100)	A (50-100)	B (Less than 80)
CCC(OC(=O)Nc1ccc(-c2ncn(-c3ccc(OC(F)(F)C(F)(F)F)cc3)n2)cc1)c1ccccc1 (stereo not drawn) [Compound 34]	A (50-100)	A (50-100)	B (Less than 80)
CC(OC(=O)Nc1ccc(-c2ncn(-c3ccc(OC(F)(F)F)cc3)n2)cc1)c1ccc(I)cc1 (stereo not drawn) [Compound 35]	A (50-100)	A (50-100)	B (Less than 80)
CC(OC(=O)Nc1ccc(-c2ncn(-c3ccc(OC(F)(F)F)cc3)n2)cc1)c1ccc2ccccc2n1 (stereo not drawn) [Compound 36]	A (50-100)	A (50-100)	B (Less than 80)
Cc1cccc(C(C)OC(=O)Nc2ccc(-c3ncn(-c4ccc(OC(F)(F)F)cc4)n3)cc2)n1 (stereo not drawn) [Compound 37]	A (50-100)	A (50-100)	B (Less than 80)
CC(C)c1ccc(C(C)OC(=O)Nc2ccc(-c3ncn(-c4ccc(OC(F)(F)F)cc4)n3)cc2)cc1 (stereo not drawn) [Compound 38]	A (50-100)	A (50-100)	B (Less than 80)
CC(OC(=O)Nc1ccc(-c2ncn(-c3ccc(OC(F)(F)F)cc3)n2)cc1)c1ccc(Br)cc1 (stereo not drawn) [Compound 39]	A (50-100)	A (50-100)	B (Less than 80)
CC(OC(=O)Nc1ccc(-c2ncn(-c3ccc(OC(F)(F)F)cc3)n2)cc1)c1ccc(C(C)(C)C)cc1 (stereo not drawn) [Compound 40]	A (50-100)	A (50-100)	B (Less than 80)
CC(OC(=O)Nc1ccc(-c2ncn(-c3ccc(OC(F)(F)F)cc3)n2)cc1)c1ccc(C(F)(F)F)nc1 (stereo not drawn) [Compound 41]	A (50-100)	A (50-100)	B (Less than 80)
CC(OC(=O)Nc1ccc(-c2ncn(-c3ccc(OC(F)(F)F)cc3)n2)cc1)c1ccc(C(F)(F)F)cc1 (stereo not drawn) [Compound 42]	A (50-100)	A (50-100)	B (Less than 80)
O=C(Nc1ccc(-c2ncn(-c3ccc(OC(F)(F)F)cc3)n2)cc1)OC(c1ccccc1)c1ccc(C(F)(F)F)cc1 (stereo not drawn) [Compound 43]	A (50-100)	A (50-100)	B (Less than 80)
C#Cc1ccc(C(C)OC(=O)Nc2ccc(-c3ncn(-c4ccc(OC(F)(F)F)cc4)n3)cc2)cc1 (stereo not drawn) [Compound 44]	A (50-100)	A (50-100)	B (Less than 80)
CC(OC(=O)Nc1ccc(-c2ncn(-c3ccc(OC(F)(F)F)cc3)n2)cc1)c1ccc(C#N)cc1 (stereo not drawn) [Compound 45]	A (50-100)	A (50-100)	B (Less than 80)
CC(OC(=O)Nc1ccc(-c2ncn(-c3ccc(OC(F)(F)F)cc3)n2)cc1)c1ccccn1 (stereo not drawn) [Compound 46]	A (50-100)	A (50-100)	B (Less than 80)
Cc1ccc(C(C)OC(=O)Nc2ccc(-c3ncn(-c4ccc(OC(F)(F)F)cc4)n3)cc2)cn1 (stereo not drawn) [Compound 47]	A (50-100)	A (50-100)	B (Less than 80)
CC(OC(=O)Nc1ccc(-c2ncn(-c3ccc(OC(F)(F)F)cc3)n2)cc1)c1ccncc1 (stereo not drawn) [Compound 48]	A (50-100)	A (50-100)	B (Less than 80)
